Measurements published in patent EP0489933A1, “BILE ALCOHOL AND DRUG CONTAINING THE SAME AS ACTIVE INGREDIENT” (TSUMURA CO., LTD., priority 1990, dated 1992).
Like-named read-outs stand apart in the source and are kept apart here.

Legend:
male rats of SHR line = test: Blood pressure in SHR rats; format: in vivo; conditions: 10 mg/kg, p.o., 2 weeks
Protocol: In this experiment, 12-week-old male rats of SHR line (5 to 6 individuals per one group) were used after rearing them for 1 week with normal feed. Oral administration of each test drug has been carried out for 2 weeks and then blood pressure (mmHg) was measured using a small animal hemomanometer (UR-1000).

male mice of ddY line [1] = test: Survival time under hypoxia (aeration with 96% nitrogen and 4% oxygen); format: in vivo; conditions: 50 mg/kg, i.p., 60 minutes before aeration with 96% nitrogen and 4% oxygen; time to respiratory arrest
Protocol: In this experiment, 5 to 6-week-old male mice of ddY line (10 individuals per one group) were used after fasting treatment for 24 hours.
Each compound obtained in the present invention was administered intraperitoneally. After 60 minutes of the administration, each mouse was transferred separately into a transparent vessel (capacity, 1,000 ml) equipped with an air exit, and the vessel was aerated with a mixed gas consisting of 96% nitrogen and 4% oxygen at an aeration rate of 5 ℓ/min.
All tested mice died within 180 seconds after the commencement of the gas mixture aeration. Terminal respiration was observed several times prior to the respiratory arrest. Survival time of the control group was roughly in the range of from 96 to 111 seconds.

male mice of ddY line [2] = format: in vivo; conditions: 50 mg/kg, i.p., 60 minutes before KCN (3.0 mg/kg) tail intravenous injection; for Survival Time ±S.E.: time to respiratory arrest
[3] = test system: rats of diabetes mellitus; test: Blood sugar level in streptozotocin-induced diabetes mellitus; format: in vivo, male rats of Wistar line; conditions: 50 mg/kg
Protocol: In this experiment, 8-week-old male rats of Wistar line (5 individuals per one group) were used after rearing them for 1 week with normal feed. Streptozotocin (40 mg/kg) was administered by tail intravenous injection to obtain rats of diabetes mellitus. Beginning after 1 week of the streptozotocin administration, oral administration of each test drug has been carried out for 1 week, followed by 24 hours of fasting. Thereafter, blood sample was collected from lower abdominal vena cava under anesthesia with Nembutal® (1 ml/kg, i.p.). Serum samples were prepared from the thus collected blood samples and checked for their blood sugar levels, with the results shown in Table 9.

red blood cells = test: Inhibition of thermal hemolysis of red blood cells; format: cell-based, donryu rats; conditions: 53°C for 20 minutes; for inhibition at 10 µM / inhibition at 50 µM / inhibition at 100 µM / inhibition at 200 µM / inhibition at 500 µM: Rattus norvegicus, Erythrocyte, 20 min, read-out: Hemolysis Inhibition Ratio (%) against Control
Protocol: Blood was collected from donryu rats of 150 to 200 g in body weight and centrifuged at 1,500 rpm for 5 minutes to obtain red blood cells. The red blood cells thus collected were diluted with 0.15 M phosphate buffer (pH 7.4) to prepare a 5% red blood cell suspension. A 3.8 ml portion of the thus prepared suspension was mixed with 0.2 ml solution of each compound of the present invention which has been adjusted to each level of the concentrations as shown in the following table, and the resulting mixture was shaken thoroughly and incubated at 53°C for 20 minutes. Thereafter, the thus incubated mixture was cooled rapidly with tap water and centrifuged at 3,000 rpm for 15 minutes, and absorbance at 540 nm of the resulting supernatant fluid was measured using a spectrophotometer (Hitachi: Type 200-20). Inhibition rate (%) of red blood cell hemolysis at each concentration of the compound was calculated based on the absorbance, with the results shown in Table 8.

male rats of SD line = test: High cholesterol feed: blood viscosity, serum total cholesterol, triglyceride, GOT; format: in vivo; conditions: 100 mg/kg/day, p.o., 4 days
Protocol: In this experiment, 5-week-old male rats of SD line (5 individuals per one group) were used after rearing them for 1 week using normal feed, and each compound of the present invention (100 mg/kg) was administered orally once a day for 4 days. Simultaneously with the commencement of the administration, the normal feed was replaced by a high cholesterol feed. After completion of the administration, they were subjected to fasting treatment for 24 hours. Thereafter, each rat was subjected to ventrotomy under anesthesia with Nembutal® (Dainabot Co., Ltd.; 50 mg/kg, i.p.) to collect blood from abdominal aorta, and the collected blood sample was checked for its blood viscosity using a viscometer (Biolyzer, Tokyo Keiki Co., Ltd.). At the same time, total cholesterol (Wako Pure Chemical Industries, Ltd.; Cholesterol E-test wako), triglyceride (Wako Pure Chemical Industries, Ltd.; Triglyceride G-test wako) and GOT (Wako Pure Chemical Industries, Ltd.; GOT-UV test-wako) in serum samples were measured.

male mice of ddY line [4] = test: Blood oxygen and carbon dioxide partial pressure; format: in vivo; conditions: 20 mg/kg, i.p.; blood from abdominal aorta 60 minutes after administration
Protocol: In this experiment, 4-week-old male mice of ddY line (10 individuals per one group) were used after fasting treatment for 24 hours.
After 60 minutes of the administration of each compound of the present invention, each mouse was subjected to ventrotomy under anesthesia with Nembutal® (Dainabot Co., Ltd.; 50 mg/kg, i.p.) to collect blood from abdominal aorta, and the collected blood sample was immediately checked for its oxygen partial pressure (PO₂) and carbon dioxide partial pressure (PCO₂) using a blood-aerotonometer (Model 170, Ciba-Corning).

erythrocytes = test: Erythrocyte deformability (filtration through 5 µm filter) after oral administration; format: in vivo, male rats of Wistar line; conditions: 30 mg/kg, p.o.; blood collected 90 minutes after administration; number of filtered erythrocytes
Protocol: In this experiment, 9-week-old male rats of Wistar line (5 to 6 individuals per one group) were used after rearing them for 1 week with normal feed. After 24 hours of fasting, each test drug was administered orally and, 90 minutes thereafter, blood sample was collected from lower abdominal vena cava of each rat under anesthesia with Nembutal® (1 ml/kg, i.p.). Blood samples obtained in this way were checked for their blood clotting time and erythrocyte deformability.
Measuring procedures are as follows.
Erythrocyte deformability ... The collected blood is extruded from a syringe with a constant flow of He in a holder equipped with a filter (5 µm). Weight of blood and the number of erythrocytes filtered during a fixed time are measured and the deformability is expressed based on the number of filtered erythrocytes. The results of these measurements are shown respectively in Tables 11 and 12.

[5] = i.o., administered for 1 week beginning 1 week after streptozotocin (40 mg/kg), serum

Compound | Blood Pressure ±S.E. Average (male rats of SHR line) [mmHg] | Blood Pressure ±S.E. Maximum (male rats of SHR line) [mmHg] | Survival Time ±S.E. (male mice of ddY line [1]) [s] | Lethality (%) (male mice of ddY line [2]) | Survival Time ±S.E. (male mice of ddY line [2]) [s] | GOT ±S.E. (male rats of SD line) [IU/ℓ] | Total Cholesterol ±S.E. (male rats of SD line) [mg/dL] | Triglyceride ±S.E. (male rats of SD line) [mg/dL] | Carbon Dioxide Partial Pressure (male mice of ddY line [4]) [mmHg] | Oxygen Partial Pressure (male mice of ddY line [4]) [mmHg] | Erythrocyte Deformation: Erythrocyte counts ±S.E. (erythrocytes) [× 10⁷] | Blood Sugar Level ± S.E. [3, 5] [mg/dL] | inhibition at 10 µM (red blood cells; 0.01 mM) [%] | inhibition at 50 µM (red blood cells; 0.05 mM) [%] | inhibition at 100 µM (red blood cells; 0.1 mM) [%] | inhibition at 200 µM (red blood cells; 0.2 mM) [%] | inhibition at 500 µM (red blood cells; 0.5 mM) [%] | other results
CC(CCC1OCC1CO)C1CCC2C3C(O)CC4CC(O)CCC4(C)C3CC(O)C12C [Example 3, (24R)-(25S)-(+)-24,26-epoxy-5β-cholestane-3α,7α,12α,27-tetrol] | 150 ± 3.7 | 200 ± 7.7 | 113.2 ± 5.28 | 80 | 107.3 ± 8.6 | 140 ± 10 | 445 ± 65 | 90 ± 39 | 45.5 | 86.1 | 3.55 ± 0.66 |  |  |  |  |  |  | Blood Sugar Level ± S.E. ([3]; 168 h): 143 ± 6.9 mg/dL; Hemolysis Inhibition Ratio (%) against Control (red blood cells; 0.01 mM): 33%; Hemolysis Inhibition Ratio (%) against Control (red blood cells; 0.05 mM): 30%; Hemolysis Inhibition Ratio (%) against Control (red blood cells; 0.1 mM): 24%; Hemolysis Inhibition Ratio (%) against Control (red blood cells; 0.2 mM): 51%; Hemolysis Inhibition Ratio (%) against Control (red blood cells; 0.5 mM): 70%
C[C@H](CC[C@H]1OC[C@H]1CO)[C@H]1CC[C@H]2[C@@H]3[C@H](O)C[C@@H]4C[C@H](O)CC[C@]4(C)[C@H]3C[C@H](O)[C@]12C [Example 4, (24R)-(25R)-(+)-24,26-epoxy-5β-cholestane-3α,7α,12α,27-tetrol] | 153 ± 2.8 | 205 ± 7.8 | 115.5 ± 3.88 | 80 | 98.1 ± 13.1 | 138 ± 9 | 428 ± 49 | 92 ± 45 | 39.1 | 85.3 | 3.97 ± 0.39 | 181 ± 8.9 | 27 | 21 | 31 | 44 | 48 | 
C[C@H](CC[C@@H](O)C1COC1)[C@H]1CC[C@H]2[C@@H]3[C@H](O)C[C@@H]4C[C@H](O)CC[C@]4(C)[C@H]3C[C@H](O)[C@]12C [Example 5, (24R)-(+)-26,27-epoxy-5β-cholestane-3α,7α,12α,24-tetrol] | 148 ± 3.5 | 181 ± 3.5 | 110.0 ± 5.10 | 80 | 99.5 ± 7.21 | 141 ± 13 | 405 ± 99 | 91 ± 33 | 39.9 | 87.1 | 4.10 ± 0.55 | 122 ± 7.8 | 23 | 19 | 30 | 41 | 61 | 
C[C@H](CCCC(CO)CO)[C@H]1CC[C@H]2[C@@H]3[C@H](O)C[C@@H]4C[C@H](O)CC[C@]4(C)[C@H]3C[C@H](O)[C@]12C [Example 6, 3α,7α,12α,26,27-pentahydroxy-5β-cholestane] | 131 ± 3.7 | 178 ± 3.3 | 127.5 ± 9.26 | 80 | 98.7 ± 8.81 | 143 ± 8 | 391 ± 70 | 99 ± 41 | 40.3 | 83.5 | 3.81 ± 0.44 | 138 ± 6.8 | 33 | 25 | 20 | 41 | 62 | 
C[C@H](CCCC(CO)CO)[C@H]1CC[C@H]2[C@@H]3[C@H](O)C[C@H]4C[C@H](O)CC[C@]4(C)[C@H]3C[C@H](O)[C@]12C [Example 7, 3α,7α,12α,26,27-pentahydroxy-5α-cholestane] | 155 ± 3.6 | 198 ± 3.7 | 121.5 ± 6.00 | 80 | 89 ± 9.99 | 138 ± 18 | 385 ± 58 | 92 ± 31 | 41.1 | 81.1 | 4.02 ± 0.37 | 161 ± 5.5 | 32 | 21 | 31 | 61 | 70 | 
C[C@H](CC[C@H](O)C(CO)CO)[C@H]1CC[C@H]2[C@@H]3[C@H](O)C[C@@H]4C[C@H](O)CC[C@]4(C)[C@H]3C[C@H](O)[C@]12C [Example 8, (24S)-3α,7α,12α,24,26,27-hexahydroxy-5β-cholestane] | 151 ± 9.5 | 180 ± 6.6 | 144.8 ± 10.27 | 70 | 123.0 ± 7.19 | 140 ± 13 | 410 ± 40 | 87 ± 15 | 42.1 | 98.7 | 4.53 ± 0.82 | 112 ± 8.4 | 27 | 20 | 37 | 50 | 60 | 
